According to patent US20250230193A1, “CYCLIC COMPOUND HAVING SELECTIVE KRAS INHIBITORY EFFECT ON HRAS AND NRAS” (CHUGAI SEIYAKU KABUSHIKI KAISHA, priority 2022, published 2025):

What was measured:
[1] = biological target: GDP-bound NRAS wild-type protein (Homo sapiens, UniProt P01111); assay: Binding to NRAS by surface plasmon resonance (SPR), Single Cycle Kinetics; conditions: KD ratio NRAS/KRAS, SPR, GDP-bound wild-type proteins
[2] = biological target: GDP-bound HRAS wild-type protein (Homo sapiens, UniProt P01112); assay: Binding to HRAS by surface plasmon resonance (SPR), Single Cycle Kinetics; conditions: KD ratio HRAS/KRAS, SPR, GDP-bound wild-type proteins
Chain of GDP-bound HRAS wild-type protein (P01112 whole entry): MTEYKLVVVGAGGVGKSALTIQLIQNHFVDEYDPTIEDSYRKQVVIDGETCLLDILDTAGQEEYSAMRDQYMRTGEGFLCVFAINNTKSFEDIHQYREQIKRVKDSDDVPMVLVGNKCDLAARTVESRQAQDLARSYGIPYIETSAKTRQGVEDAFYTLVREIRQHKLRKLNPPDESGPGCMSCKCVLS

Chain of GDP-bound NRAS wild-type protein (P01111 whole entry): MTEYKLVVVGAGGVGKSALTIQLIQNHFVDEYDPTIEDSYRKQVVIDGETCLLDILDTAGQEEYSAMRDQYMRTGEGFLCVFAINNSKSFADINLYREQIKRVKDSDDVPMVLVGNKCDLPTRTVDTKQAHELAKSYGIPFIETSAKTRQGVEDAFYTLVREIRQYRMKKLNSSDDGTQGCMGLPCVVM

SMILES	NRAS/KRAS (ratio of KD value with respect to GDP-bound NRAS wild-type protein to KD value with respect to KRAS) [1]	HRAS/KRAS (ratio of KD value with respect to GDP-bound HRAS wild-type protein to KD value with respect to KRAS) [2]
CCC[C@H]1C(=O)N[C@@H]([C@@H](C)CC)C(=O)N(C)CC(=O)N(C)[C@H]2C/C=C\CCN(C2=O)[C@@H](Cc2ccc(C(F)(F)F)cc2)C(=O)N(C)CC(=O)N[C@@H](CCc2ccc(C(F)(F)F)c(Cl)c2)C(=O)N2CC3(CC3)C[C@H]2C(=O)NC2(CC(C)(C)C2)C(=O)N(C)[C@@H](CC(C)(C)C)C(=O)N(C)[C@H](C(=O)N(C)C)CC(=O)N1C [PP2979]	A (a compound having 10 or more and less than 20 is denoted as A)	B (a compound having 3 or more and less than 10 is denoted as B)
C#CC[C@H]1C(=O)N[C@@H]([C@@H](C)CC)C(=O)N(C)CC(=O)N(C)[C@H]2C/C=C\CCN(C2=O)[C@@H](Cc2ccc(C(F)(F)F)cc2)C(=O)N(C)CC(=O)N[C@@H](CCc2ccc(C(F)(F)F)c(Cl)c2)C(=O)N2CC3(CC3)C[C@H]2C(=O)NC2(CC(C)(C)C2)C(=O)N(C)[C@@H](C2CCCC2)C(=O)N(C)[C@H](C(=O)N(C)C)CC(=O)N1C [PP2980]	A (a compound having 10 or more and less than 20 is denoted as A)	B (a compound having 3 or more and less than 10 is denoted as B)
CCC[C@H]1C(=O)N[C@@H](C2CCCC2)C(=O)N(C)CC(=O)N(C)[C@H]2C/C=C\CCN(C2=O)[C@@H](Cc2ccc(C(F)(F)F)cc2)C(=O)N(C)CC(=O)N[C@@H](CCc2ccc(C(F)(F)F)c(Cl)c2)C(=O)N2CC3(CC3)C[C@H]2C(=O)NC2(CC(C)(C)C2)C(=O)N(C)[C@@H](CC(C)(C)C)C(=O)N(C)[C@H](C(=O)N(C)C)CC(=O)N1C [PP2981]	AA (a compound having 20 or more is denoted as AA)	A (a compound having 10 or more and less than 20 is denoted as A)
C#CC[C@H]1C(=O)N[C@@H]([C@@H](C)CC)C(=O)N(C)CC(=O)N(C)[C@H]2C/C=C\CCN(C2=O)[C@@H](Cc2ccc(C)cc2)C(=O)N(C)CC(=O)N[C@@H](CCc2ccc(C(F)(F)F)c(Cl)c2)C(=O)N2CC3(CC3)C[C@H]2C(=O)NC2(CC(C)(C)C2)C(=O)N(C)[C@@H](C2CCCC2)C(=O)N(C)[C@H](C(=O)N(C)C)CC(=O)N1C [PP2982]	A (a compound having 10 or more and less than 20 is denoted as A)	A (a compound having 10 or more and less than 20 is denoted as A)
CCC[C@H]1C(=O)N[C@@H]([C@@H](C)CC)C(=O)N(C)CC(=O)N(C)[C@H]2C/C=C\CCN(C2=O)[C@@H](Cc2ccc(C(F)(F)F)cc2)C(=O)N(C)CC(=O)N[C@@H](CCc2ccc(C(F)(F)F)c(Cl)c2)C(=O)N2CC3(CC3)C[C@H]2C(=O)NC2(CC(C)(C)C2)C(=O)N(C)[C@@H]([C@@H](C)CC)C(=O)N(C)[C@H](C(=O)N(C)C)CC(=O)N1C [PP2983]	AA (a compound having 20 or more is denoted as AA)	A (a compound having 10 or more and less than 20 is denoted as A)
CCC[C@H]1C(=O)N[C@@H](C2CCCC2)C(=O)N(C)CC(=O)N(C)[C@H]2C/C=C\CCN(C2=O)[C@@H](Cc2ccc(C(F)(F)F)cc2)C(=O)N(C)CC(=O)N[C@@H](CCc2ccc(C(F)(F)F)c(Cl)c2)C(=O)N2C[C@H](OCC)C[C@H]2C(=O)NC2(CC(C)(C)C2)C(=O)N(C)[C@@H](C2CCCC2)C(=O)N(C)[C@H](C(=O)N(C)C)CC(=O)N1C [PP2984]	A (a compound having 10 or more and less than 20 is denoted as A)	B (a compound having 3 or more and less than 10 is denoted as B)
